Assay results reported in paper PMC10282731, “Pyrrolo[2,3-e]indazole as a novel chemotype for both influenza A virus and pneumococcal neuraminidase inhibitors” (RSC Advances, 2023).
Converted amounts (≈) assume the structure as drawn. “And” between values parts separate entries of the source, which are not always exact repeats. Equal values may be shown once. Read-outs that look alike come from different tables or passages of the source. Marks after values point to notes of the source that are not given here.

How the values were obtained:
[1] = tested on: neuraminidase of influenza A virus (IAV NA); assay: Human erythrocyte-based (hemagglutination-based) viral neuraminidase inhibition assay; assay type: biochemical, influenza A virus A/Jena/8178/09; details: human erythrocytes, 37 °C for 24 h, maximum 100 µM for test compounds
S. pneumoniae DSM20566 [2] = assay: Biofilm formation inhibition assay (crystal violet); assay type: cell-based, Streptococcus pneumoniae; details: read-out: IC50 Biofilm formation
[3] = tested on: influenza A virus A/HK/1/68 (subtype H3N2); assay: Influenza A virus-induced CPE inhibition assay in MDCK cells (A/HK/1/68); assay type: cell-based; details: H3N2, 48 h, maximum 100 µM, n.a. = not active, read-out: IC50 (IAV) HK/1/68
S. pneumoniae DSM20566 [4] = assay: Planktonic growth inhibition, microtiter broth microdilution assay; assay type: cell-based, Streptococcus pneumoniae; details: read-out: IC50 Planktonic growth
[5] = target: T1, neuraminidase NanA of S. pneumoniae strain DSM20566 (Streptococcus pneumoniae, UniProt P62575); assay: Lectin-based hemagglutination NA inhibition assay with pneumococcal neuraminidase; assay type: biochemical; details: ethanol-precipitated proteins of S. pneumoniae DSM20566, lectin-based hemagglutination assay
[6] = tested on: influenza A virus A/Jena/8178/09 (subtype A(H1N1)pdm09); assay: Influenza A virus-induced CPE inhibition assay in MDCK cells (A/Jena/8178/09); assay type: cell-based; details: A(H1N1)pdm09, 48 h, maximum 100 µM, n.a. = not active, read-out: IC50 (IAV) Jena/8178
MDCK cells = details: read-out: CC50 (MDCK), 72 h incubation, maximum 100 µM
in vitro = details: dog
viral hemagglutinin = viral hemagglutinin (Influenza A virus, UniProt C3W5S1); assay: Human erythrocyte-based assay, inhibition of viral hemagglutinin-induced hemagglutination at 4 °C; assay type: biochemical; details: human erythrocytes, influenza A virus A/Jena/8178/09
[7] = target: T1, neuraminidase NanA of S. pneumoniae strain DSM20566; details: Published; cited from earlier work
[8] = Streptococcus pneumoniae, DSM20566, 18 h
[9] = Streptococcus pneumoniae, S. pneumoniae DSM20566, 24 h, crystal violet, maximum 50 μM

T1 sequence (P62575 54-1035): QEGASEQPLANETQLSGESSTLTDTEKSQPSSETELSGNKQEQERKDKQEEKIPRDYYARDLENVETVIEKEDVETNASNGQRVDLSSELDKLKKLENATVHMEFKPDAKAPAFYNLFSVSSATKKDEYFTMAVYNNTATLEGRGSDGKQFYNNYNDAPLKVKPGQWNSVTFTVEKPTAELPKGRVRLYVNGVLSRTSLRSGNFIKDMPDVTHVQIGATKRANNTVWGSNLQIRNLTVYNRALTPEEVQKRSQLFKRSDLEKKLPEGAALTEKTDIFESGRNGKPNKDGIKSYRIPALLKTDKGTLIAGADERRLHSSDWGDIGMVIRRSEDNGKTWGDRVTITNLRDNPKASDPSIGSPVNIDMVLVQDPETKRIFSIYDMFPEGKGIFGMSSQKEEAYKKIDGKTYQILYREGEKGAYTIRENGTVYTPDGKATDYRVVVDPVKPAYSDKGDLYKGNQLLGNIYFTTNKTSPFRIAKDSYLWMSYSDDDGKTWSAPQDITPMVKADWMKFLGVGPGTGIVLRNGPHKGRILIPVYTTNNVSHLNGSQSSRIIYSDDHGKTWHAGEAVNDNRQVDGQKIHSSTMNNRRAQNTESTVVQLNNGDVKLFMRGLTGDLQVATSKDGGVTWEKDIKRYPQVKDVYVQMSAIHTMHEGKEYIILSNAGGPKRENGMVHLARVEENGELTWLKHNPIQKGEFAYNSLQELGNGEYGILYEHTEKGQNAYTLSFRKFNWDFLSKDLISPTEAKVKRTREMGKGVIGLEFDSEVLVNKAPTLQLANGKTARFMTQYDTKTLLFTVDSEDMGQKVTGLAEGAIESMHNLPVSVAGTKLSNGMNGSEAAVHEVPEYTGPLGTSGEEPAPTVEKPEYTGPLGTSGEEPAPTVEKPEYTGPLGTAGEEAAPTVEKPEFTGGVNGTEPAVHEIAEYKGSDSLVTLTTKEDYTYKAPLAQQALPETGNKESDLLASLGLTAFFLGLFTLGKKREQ
Chain of viral hemagglutinin (C3W5S1 18-344 limits assumed): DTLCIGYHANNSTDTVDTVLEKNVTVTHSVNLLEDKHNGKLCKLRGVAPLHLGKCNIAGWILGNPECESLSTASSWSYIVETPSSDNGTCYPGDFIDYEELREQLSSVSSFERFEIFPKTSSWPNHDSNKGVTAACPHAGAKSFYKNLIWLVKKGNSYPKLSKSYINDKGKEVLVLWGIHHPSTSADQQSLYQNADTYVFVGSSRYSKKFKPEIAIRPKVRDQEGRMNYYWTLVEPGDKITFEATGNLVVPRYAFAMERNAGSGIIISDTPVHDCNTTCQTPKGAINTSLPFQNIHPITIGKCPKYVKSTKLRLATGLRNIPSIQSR
Chain of viral hemagglutinin (C3W5S1 345-566 limits assumed): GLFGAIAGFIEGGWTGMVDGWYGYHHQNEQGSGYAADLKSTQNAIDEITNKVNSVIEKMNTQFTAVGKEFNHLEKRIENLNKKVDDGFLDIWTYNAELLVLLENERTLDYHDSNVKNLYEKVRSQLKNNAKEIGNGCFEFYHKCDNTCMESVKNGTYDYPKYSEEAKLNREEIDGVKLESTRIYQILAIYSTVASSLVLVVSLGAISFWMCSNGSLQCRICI

| Molecule | MIC IAV NA (minimum neuraminidase inhibitory concentration) [1] | MIC S.p. NanA (minimum neuraminidase inhibitory concentration) [5] | CC50 at 72 h (in vitro) | melting point | IC50 ([6]; Influenza A virus) | other results |
| --- | --- | --- | --- | --- | --- | --- |
| 5-Hydroxy-3-ethoxycarbonyl-2-methyl-6-phenyl-8-[4-(trifluoromethyl)phenyl]-pyrrolo[2,3-e]indazole [Compound 6h] | 24.40 µM | 10.0 µM and 10.00 µM |  |  |  | IC50 (S. pneumoniae DSM20566 [2]; S. pneumoniae DSM20566, 24 h, crystal violet, maximum 50 μM): 40.1 µM; IC50 [3]: 30.5 µM; IC50 (S. pneumoniae DSM20566 [4]; S. pneumoniae DSM20566, 18 h, OD 620 nm, maximum 50 μM): 50 µM; IC50 [6]: 24.8 µM; CC50 (MDCK cells): > 100 µM |
| 5-Hydroxy-3-ethoxycarbonyl-2-methyl-8-(4-nitrophenyl)-6-phenyl-pyrrolo[2,3-e]indazole [Compound 6e] | 54.40 µM | 14.32 µM |  |  |  | IC50 [3]: 16.4 µM; IC50 [6]: 19.5 µM; CC50 (MDCK cells): > 100 µM |
| 5-hydroxy-3-ethoxycarbonyl-2-methyl-6,8-diphenyl-pyrrolo[2,3-e]indazole [Compound 6a] | 70.00 µM | 31.60 µM |  |  |  | CC50 (MDCK cells): > 100 µM |
| CCOC(=O)c1c(C)n(C)c2c1cc(O)c1c2c(-c2ccccc2)nn1-c1ccccc1 [Compound 6b, 5-Hydroxy-3-ethoxycarbonyl-1,2-dimethyl-6,8-diphenyl-pyrrolo[2,3-e]indazole] | 31.60 µM (≈ 13.4 µg/mL) | 31.60 µM (≈ 13.4 µg/mL) | > 100 µM | 270 to 272 °C | 31.6 µM |  |
| CCOC(=O)c1c(C)n(Cc2ccccc2)c2c1cc(O)c1c2c(-c2ccccc2)nn1-c1ccccc1 [Compound 6c, 1-Benzyl-5-hydroxy-3-ethoxycarbonyl-2-methyl-6,8-diphenyl-pyrrolo[2,3-e]indazole] | 77.20 µM (≈ 38.7 µg/mL) | 24.40 µM (≈ 12.2 µg/mL) |  | 256 to 258 °C | 71.1 µM | CC50 (in vitro): > 100 µM; IC50 (S. pneumoniae DSM20566 [2]; Streptococcus pneumoniae, DSM20566, 24 h): 0.93 µM; IC50 (S. pneumoniae DSM20566 [4]; [8]): 8.9 µM |
| CCOC(=O)c1c(C)n(-c2ccc(OC)cc2)c2c1cc(O)c1c2c(-c2ccccc2)nn1-c1ccccc1 [Compound 6d, 5-Hydroxy-3-ethoxycarbonyl-1-(4-methoxyphenyl)-2-methyl-6,8-diphenyl-pyrrolo[2,3-e]indazole] | 54.40 µM (≈ 28.2 µg/mL) | 17.20 µM (≈ 8.9 µg/mL) | > 100 µM | 277 to 279 °C | 38.6 µM |  |
| CCOC(=O)c1c(C)n(C)c2c1cc(O)c1c2c(-c2ccc([N+](=O)[O-])cc2)nn1-c1ccccc1 [Compound 6f, 5-Hydroxy-3-ethoxycarbonyl-1,2-dimethyl-8-(4-nitrophenyl)-6-phenyl-pyrrolo[2,3-e]indazole] | 77.20 µM (≈ 36.3 µg/mL) | 31.60 µM (≈ 14.9 µg/mL) | > 100 µM | 258 to 261 °C |  | IC50 ([3]; Influenza A virus): 42.5 µM |
| CCOC(=O)c1c(C)n(Cc2ccccc2)c2c1cc(O)c1c2c(-c2ccc([N+](=O)[O-])cc2)nn1-c1ccccc1 [Compound 6g, 1-Benzyl-5-hydroxy-3-ethoxycarbonyl-2-methyl-8-(4-nitrophenyl)-6-phenyl-pyrrolo[2,3-e]indazole] |  |  |  | 226 to 228 °C |  | CC50 (in vitro): > 100 µM |
| CCOC(=O)c1c(C)[nH]c2c1cc(O)c1c2c(-c2ccc(CC)cc2)nn1-c1ccccc1 [Compound 6j] |  |  | > 100 µM |  |  | IC50 ([3]; Influenza A virus): 52.2 µM |
| CCOC(=O)c1c(C)[nH]c2c1cc(O)c1c2c(-c2cc(Cl)cc(Cl)c2)nn1-c1ccccc1 [Compound 6k] |  |  | > 100 µM |  |  | IC50 ([3]; Influenza A virus): 30.2 µM |
| CCOC(=O)c1c(C)n(C)c2c1cc(OC(C)=O)c1c2c(-c2ccccc2)nn1-c1ccccc1 [Compound 7a] | 100.00 µM (≈ 46.8 µg/mL) | 31.60 µM (≈ 14.8 µg/mL) | > 100 µM | 214 to 216 °C | 83.7 µM |  |
| CCOC(=O)c1c(C)n(Cc2ccccc2)c2c1cc(OC(C)=O)c1c2c(-c2ccccc2)nn1-c1ccccc1 [Compound 7b] | 100.00 µM (≈ 54.4 µg/mL) | 31.60 µM (≈ 17.2 µg/mL) |  |  | 38.7 µM | CC50 (in vitro): > 100 µM |
| CCOC(=O)c1c(CN2CCCCC2)n(C)c2c1cc(OC(C)=O)c1c2c(-c2ccccc2)nn1-c1ccccc1 [Compound 9a] | does not inhibit | 54.40 µM (≈ 30 µg/mL) | > 100 µM | 203 to 205 °C |  |  |
| CCOC(=O)c1c(CN(CC)CC)n(C)c2c1cc(OC(C)=O)c1c2c(-c2ccccc2)nn1-c1ccccc1 [Compound 9b] | 77.20 µM (≈ 41.6 µg/mL) | 24.40 µM (≈ 13.1 µg/mL) | > 100 µM |  | 53.2 µM |  |
| CCOC(=O)c1c(CN2CCCCC2)n(C)c2c1cc(O)c1c2c(-c2ccccc2)nn1-c1ccccc1 [Compound 10a] | 54.40 µM (≈ 27.7 µg/mL) | 31.60 µM (≈ 16.1 µg/mL) | > 100 µM | 285 °C | 86.7 µM | IC50 (S. pneumoniae DSM20566 [2]; [9]): 3.31 µM; IC50 (S. pneumoniae DSM20566 [4]; Streptococcus pneumoniae, S. pneumoniae DSM20566, 18 h, OD 620 nm, maximum 50 μM): 6.88 µM |
| CCOC(=O)c1c(CN2CCOCC2)n(Cc2ccccc2)c2c1cc(O)c1c2c(-c2ccccc2)nn1-c1ccccc1 [Compound 10b] | 54.40 µM (≈ 31.9 µg/mL) | 10.0 µM and 10.00 µM |  | 145 to 146 °C | 33.2 µM | CC50 (in vitro): > 100 µM; IC50 (S. pneumoniae DSM20566 [4]; [8]): 7.57 µM |
| CCOC(=O)c1c(C)n(C)c2c1cc(OC)c1c2c(-c2ccc([N+](=O)[O-])cc2)nn1-c1ccccc1 [Compound 11a] | 24.40 µM (≈ 11.8 µg/mL) | 31.60 µM (≈ 15.3 µg/mL) | > 100 µM |  | 21.5 µM |  |
| CCOC(=O)c1c(C)n(CC)c2c1cc(OCC)c1c2c(-c2ccc([N+](=O)[O-])cc2)nn1-c1ccccc1 [Compound 11b] | 77.20 µM (≈ 39.6 µg/mL) | 54.40 µM (≈ 27.9 µg/mL) |  | 175 to 177 °C | 25.5 µM | CC50 (in vitro): > 100 µM |
| CCOC(=O)c1c(C)[nH]c2c1cc(OCC)c1c2c(-c2ccc([N+](=O)[O-])cc2)nn1-c1ccccc1 [Compound 11c] | 47.20 µM (≈ 22.9 µg/mL) | 54.40 µM (≈ 26.4 µg/mL) | > 100 µM |  | 30.3 µM |  |
| CCCCCOc1cc2c(C(=O)OCC)c(C)[nH]c2c2c(-c3ccc([N+](=O)[O-])cc3)nn(-c3ccccc3)c12 [Compound 11d] |  |  | > 100 µM |  | 26.5 µM |  |
| CCOC(=O)c1c(C)[nH]c2c1cc(OC(C)=O)c1c2c(-c2ccc([N+](=O)[O-])cc2)nn1-c1ccccc1 [Compound 11e] | 17.20 µM (≈ 8.57 µg/mL) | 10.0 µM and 10.00 µM | > 100 µM |  | 16.7 µM |  |
| CCOC(=O)c1c(C)[nH]c2c1cc(O)c1c2c(-c2ccc(N)cc2)nn1-c1ccccc1 [Compound 12] | 21.40 µM (≈ 9.13 µg/mL) | 10.0 µM and 10.00 µM | > 100 µM |  | 15.7 µM | IC50 ([3]; Influenza A virus): 8.54 µM |
| CCOC(=O)c1c(C)[nH]c2c1cc(OC(C)=O)c1c2c(-c2ccc(N)cc2)nn1-c1ccccc1 [Compound 13] | 14.20 µM (≈ 6.65 µg/mL) |  | > 100 µM |  | 14.1 µM | IC50 ([3]; Influenza A virus): 9.39 µM; Inhibition of hemagglutination (concentration) (viral hemagglutinin): 31.6 µM |
| CCOC(=O)c1c(C)[nH]c2c1cc(O)c1c2c(-c2ccc(-n3cccc3)cc2)nn1-c1ccccc1 [Compound 14] | 24.40 µM (≈ 11.6 µg/mL) | 10.0 µM and 10.00 µM | > 100 µM |  | 11.4 µM | IC50 (S. pneumoniae DSM20566 [2]; [9]): 28 µM |
| CCOC(=O)C1=C[C@@H](OC(CC)CC)[C@H](NC(C)=O)[C@@H](N)C1 [Oseltamivir, oseltamivir, reference compound] | 1.97 µM (≈ 0.615 µg/mL) |  |  |  |  | IC50 [3]: 0.004 µM; MIC S.p. NanA (minimum neuraminidase inhibitory concentration) [7]: 2.08 ^a μM; IC50 [6]: 0.14 µM |
| CC(=O)N[C@H]1[C@H]([C@H](O)[C@H](O)CO)OC(C(=O)O)=C[C@@H]1N=C(N)N [Zanamivir, zanamivir, reference compound] | 3.16 µM (≈ 1.05 µg/mL) |  |  |  | 0.11 µM |  |
